This is an account of results in ChEMBL document CHEMBL1909046, “DrugMatrix in vitro pharmacology data”.

Sequence of Histamine H2 receptor (P25021 whole entry): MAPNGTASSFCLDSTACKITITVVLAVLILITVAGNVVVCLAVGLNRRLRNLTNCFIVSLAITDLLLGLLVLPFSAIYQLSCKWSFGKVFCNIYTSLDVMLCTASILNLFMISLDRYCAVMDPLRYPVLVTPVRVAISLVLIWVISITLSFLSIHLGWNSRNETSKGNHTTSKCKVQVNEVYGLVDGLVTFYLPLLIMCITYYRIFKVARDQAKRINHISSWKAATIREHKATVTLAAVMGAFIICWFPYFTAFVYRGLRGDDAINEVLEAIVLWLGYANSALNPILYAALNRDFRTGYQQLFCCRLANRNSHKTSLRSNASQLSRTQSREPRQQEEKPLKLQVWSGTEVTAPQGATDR
Sequence of 5-hydroxytryptamine receptor 2B (P41595 whole entry): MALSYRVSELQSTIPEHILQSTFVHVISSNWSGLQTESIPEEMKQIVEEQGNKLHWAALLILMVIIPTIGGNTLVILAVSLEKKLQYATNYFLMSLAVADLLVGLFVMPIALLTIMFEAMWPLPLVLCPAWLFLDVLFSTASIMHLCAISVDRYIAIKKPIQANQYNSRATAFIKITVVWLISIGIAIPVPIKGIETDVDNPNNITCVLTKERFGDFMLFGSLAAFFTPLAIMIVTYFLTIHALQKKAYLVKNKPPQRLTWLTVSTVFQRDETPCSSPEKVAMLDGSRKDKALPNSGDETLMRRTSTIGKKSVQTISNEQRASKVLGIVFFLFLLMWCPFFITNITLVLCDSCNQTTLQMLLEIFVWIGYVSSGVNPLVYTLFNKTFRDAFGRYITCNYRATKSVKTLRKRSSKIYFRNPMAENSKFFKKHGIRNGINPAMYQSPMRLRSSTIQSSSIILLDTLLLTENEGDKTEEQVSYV
Sequence of Cytochrome P450 2E1 (P05181 whole entry): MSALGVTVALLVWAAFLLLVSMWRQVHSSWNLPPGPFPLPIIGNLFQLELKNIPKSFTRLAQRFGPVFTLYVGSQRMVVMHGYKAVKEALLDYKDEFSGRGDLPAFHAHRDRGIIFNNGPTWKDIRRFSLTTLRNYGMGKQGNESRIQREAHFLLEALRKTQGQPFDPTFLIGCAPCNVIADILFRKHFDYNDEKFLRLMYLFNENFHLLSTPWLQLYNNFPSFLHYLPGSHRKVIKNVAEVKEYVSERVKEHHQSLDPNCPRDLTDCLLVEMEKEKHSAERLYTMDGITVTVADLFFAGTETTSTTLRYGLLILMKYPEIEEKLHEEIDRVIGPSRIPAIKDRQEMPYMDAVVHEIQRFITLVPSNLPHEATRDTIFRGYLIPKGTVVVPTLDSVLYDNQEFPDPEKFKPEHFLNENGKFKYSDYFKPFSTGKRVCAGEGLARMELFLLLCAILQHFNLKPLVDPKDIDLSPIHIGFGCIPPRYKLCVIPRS

The target of one series is T1, Alpha-1B adrenergic receptor (Rattus norvegicus, UniProt P15823).
T1 sequence (P15823 whole entry): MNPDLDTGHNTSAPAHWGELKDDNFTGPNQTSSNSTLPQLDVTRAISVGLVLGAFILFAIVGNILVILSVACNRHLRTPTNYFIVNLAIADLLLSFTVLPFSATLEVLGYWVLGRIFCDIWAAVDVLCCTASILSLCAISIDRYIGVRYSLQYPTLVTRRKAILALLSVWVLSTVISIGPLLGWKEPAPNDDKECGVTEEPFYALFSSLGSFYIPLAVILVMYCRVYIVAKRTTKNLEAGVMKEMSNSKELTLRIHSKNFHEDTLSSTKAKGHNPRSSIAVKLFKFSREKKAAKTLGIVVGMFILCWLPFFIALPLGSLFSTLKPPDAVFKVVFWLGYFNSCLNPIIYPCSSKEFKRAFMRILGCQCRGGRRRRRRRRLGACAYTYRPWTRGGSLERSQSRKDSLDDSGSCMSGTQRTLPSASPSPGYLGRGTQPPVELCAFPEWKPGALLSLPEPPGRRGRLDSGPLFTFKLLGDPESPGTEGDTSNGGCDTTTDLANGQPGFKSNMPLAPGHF
In words: DRUGMATRIX: Alpha-1B adrenergic receptor radioligand binding (ligand: prazosin). As to conditions: Not Active = under 50% inhibition at 10 µM. The class given is cell membranes, Wistar, Liver, Membrane.
With `O=C1CN=C(c2ccccc2)c2cc([N+](=O)[O-])ccc2N1` [NITRAZEPAM], the IC50 entry was “Not Active”.

`CCC1(c2ccccc2)C(=O)NCNC1=O` [PRIMIDONE]: the IC50 result is listed as “Not Active”.

Consider `CC=CC(=O)N(CC)c1ccccc1C`, for which the IC50 entry is recorded as “Not Active”.

Regarding `O=C1NC(=O)C(c2ccccc2)(c2ccccc2)N1` [PHENYTOIN], the IC50 result was “Not Active”.

In a further series the target is Beta-3 adrenergic receptor (Homo sapiens, UniProt P13945). In words: DRUGMATRIX: Adrenergic beta3 radioligand binding (ligand: [125I] Cyanopindolol). It is filed as cell membranes, HEK293, Membrane. The settings on record: hek293; Not Active = under 50% inhibition at 10 µM.
Sequence of Beta-3 adrenergic receptor (P13945 whole entry): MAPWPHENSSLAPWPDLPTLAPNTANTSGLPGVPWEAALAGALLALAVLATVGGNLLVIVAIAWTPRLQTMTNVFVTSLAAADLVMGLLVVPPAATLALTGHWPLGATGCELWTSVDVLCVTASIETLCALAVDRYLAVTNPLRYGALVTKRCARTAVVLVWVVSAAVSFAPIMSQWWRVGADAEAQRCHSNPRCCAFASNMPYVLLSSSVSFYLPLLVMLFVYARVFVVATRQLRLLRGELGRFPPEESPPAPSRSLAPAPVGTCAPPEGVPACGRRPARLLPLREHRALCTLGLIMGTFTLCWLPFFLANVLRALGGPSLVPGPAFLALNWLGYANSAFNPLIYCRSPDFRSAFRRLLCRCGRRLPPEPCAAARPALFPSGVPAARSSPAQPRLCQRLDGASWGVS
For the molecule `O=C1CN=C(c2ccccc2)c2cc([N+](=O)[O-])ccc2N1` [NITRAZEPAM], the IC50 entry is recorded as “Not Active”.

For `CCC1(c2ccccc2)C(=O)NCNC1=O` [PRIMIDONE], the IC50 result is reported as “Not Active”.

As for `CC=CC(=O)N(CC)c1ccccc1C`, the IC50 result is “Not Active”.

On to `O=C1NC(=O)C(c2ccccc2)(c2ccccc2)N1` [PHENYTOIN], for which the IC50 result is on record as “Not Active”.

Test system in another series: not listed separately
Kind of series: DRUGMATRIX: Calcium Channel Type L, Benzothiazepine radioligand binding (ligand: [3H] Diltiazem). It is filed as cell membranes, Rattus norvegicus, Wistar, Brain, Membrane. The settings on record: Not Active = under 50% inhibition at 10 µM.
`O=C1CN=C(c2ccccc2)c2cc([N+](=O)[O-])ccc2N1` [NITRAZEPAM]: the IC50 entry is “Not Active” and the Ki result is listed as “Not Active”.

For `CCC1(c2ccccc2)C(=O)NCNC1=O` [PRIMIDONE], the IC50 result is given as “Not Active” and the Ki entry is “Not Active”.

As for `CC=CC(=O)N(CC)c1ccccc1C`, the IC50 result is listed as “Not Active” and the Ki result is recorded as “Not Active”.

With `O=C1NC(=O)C(c2ccccc2)(c2ccccc2)N1` [PHENYTOIN], the IC50 entry was “Not Active” and the Ki entry is “Not Active”.

A further series concerns the target 5-hydroxytryptamine receptor 2B (Homo sapiens, UniProt P41595). Further: in other assays of this panel Not Active means under 50% inhibition at 10 µM.
Assay: not given
The class given is cell membranes, CHO-K1, Membrane. As to conditions: cho-k1.
Take `O=C1CN=C(c2ccccc2)c2cc([N+](=O)[O-])ccc2N1` [NITRAZEPAM]: the IC50 entry is reported as “Not Active”.

Turning to `CCC1(c2ccccc2)C(=O)NCNC1=O` [PRIMIDONE], the IC50 entry is “Not Active”.

Consider `CC=CC(=O)N(CC)c1ccccc1C`, for which the IC50 result is on record as “Not Active”.

Regarding `O=C1NC(=O)C(c2ccccc2)(c2ccccc2)N1` [PHENYTOIN], the IC50 result is given as “Not Active”.

For another series, the target named is 5-hydroxytryptamine receptor 6 (Homo sapiens, UniProt P50406). Further: in other assays of this panel Not Active means under 50% inhibition at 10 µM.
Sequence of 5-hydroxytryptamine receptor 6 (P50406 whole entry): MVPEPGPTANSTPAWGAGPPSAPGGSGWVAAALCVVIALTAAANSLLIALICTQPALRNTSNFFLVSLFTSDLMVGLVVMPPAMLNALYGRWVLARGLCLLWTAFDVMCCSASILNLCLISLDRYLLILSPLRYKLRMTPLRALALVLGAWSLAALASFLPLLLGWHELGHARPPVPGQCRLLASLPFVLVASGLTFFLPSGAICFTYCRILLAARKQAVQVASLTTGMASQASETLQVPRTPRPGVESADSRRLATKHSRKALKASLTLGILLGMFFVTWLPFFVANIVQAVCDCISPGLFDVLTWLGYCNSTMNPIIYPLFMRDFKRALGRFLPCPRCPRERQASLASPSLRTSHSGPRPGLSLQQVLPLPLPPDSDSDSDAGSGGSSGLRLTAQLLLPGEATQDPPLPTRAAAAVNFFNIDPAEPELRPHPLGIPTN
Assay: not given
It is filed as cell membranes, HeLa, Membrane. The settings on record: hela.
With `O=C1CN=C(c2ccccc2)c2cc([N+](=O)[O-])ccc2N1` [NITRAZEPAM], the IC50 entry was “Not Active”.

Regarding `CCC1(c2ccccc2)C(=O)NCNC1=O` [PRIMIDONE], the IC50 result was “Not Active”.

Consider `CC=CC(=O)N(CC)c1ccccc1C`, for which the IC50 entry is “Not Active”.

As to `O=C1NC(=O)C(c2ccccc2)(c2ccccc2)N1` [PHENYTOIN], the IC50 entry is given as “Not Active”.

A further series has as its target T2, C-X-C chemokine receptor type 2 (Homo sapiens, UniProt P25025). Further: in other assays of this panel Not Active means under 50% inhibition at 10 µM.
T2 sequence (P25025 whole entry): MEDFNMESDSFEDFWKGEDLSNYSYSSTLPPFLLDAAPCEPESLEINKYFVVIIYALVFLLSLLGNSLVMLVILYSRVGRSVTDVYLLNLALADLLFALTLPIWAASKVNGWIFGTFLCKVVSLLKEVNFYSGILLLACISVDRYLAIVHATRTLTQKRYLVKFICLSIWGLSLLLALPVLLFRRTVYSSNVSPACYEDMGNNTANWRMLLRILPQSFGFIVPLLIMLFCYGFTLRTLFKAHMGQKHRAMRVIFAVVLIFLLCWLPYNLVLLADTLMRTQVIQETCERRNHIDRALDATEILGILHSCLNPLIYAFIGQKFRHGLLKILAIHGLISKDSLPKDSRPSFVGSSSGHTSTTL
Assay: not given
The class given is cell membranes, Membrane. The settings on record: cho-k1.
As for `O=C1CN=C(c2ccccc2)c2cc([N+](=O)[O-])ccc2N1` [NITRAZEPAM], the IC50 entry is given as “Not Active”.

Regarding `CCC1(c2ccccc2)C(=O)NCNC1=O` [PRIMIDONE], the IC50 result is listed as “Not Active”.

Regarding `CC=CC(=O)N(CC)c1ccccc1C`, the IC50 entry is on record as “Not Active”.

As for `O=C1NC(=O)C(c2ccccc2)(c2ccccc2)N1` [PHENYTOIN], the IC50 result is listed as “Not Active”.

The target in the next series is D(1A) dopamine receptor (Homo sapiens, UniProt P21728). Kind of series: DRUGMATRIX: Dopamine D1 radioligand binding (ligand: [3H] SCH-23390). The settings on record: cho; Not Active = under 50% inhibition at 10 µM. The class given is cell membranes, CHO, Membrane.
Sequence of D(1A) dopamine receptor (P21728 whole entry): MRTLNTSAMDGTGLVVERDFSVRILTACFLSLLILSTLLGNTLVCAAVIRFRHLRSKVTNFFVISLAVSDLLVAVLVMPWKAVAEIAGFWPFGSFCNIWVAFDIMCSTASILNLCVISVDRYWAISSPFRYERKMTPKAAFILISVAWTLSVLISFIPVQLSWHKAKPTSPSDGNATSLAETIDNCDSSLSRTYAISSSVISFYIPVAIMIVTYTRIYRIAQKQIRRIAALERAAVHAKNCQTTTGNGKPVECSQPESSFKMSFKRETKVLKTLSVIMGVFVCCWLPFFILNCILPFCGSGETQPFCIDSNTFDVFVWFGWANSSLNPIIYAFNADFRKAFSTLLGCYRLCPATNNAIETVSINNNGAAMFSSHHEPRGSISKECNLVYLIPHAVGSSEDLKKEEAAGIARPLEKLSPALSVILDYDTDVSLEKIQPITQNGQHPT
`O=C1CN=C(c2ccccc2)c2cc([N+](=O)[O-])ccc2N1` [NITRAZEPAM]: the IC50 result is given as “Not Active”.

For `CCC1(c2ccccc2)C(=O)NCNC1=O` [PRIMIDONE], the IC50 entry is listed as “Not Active”.

With `CC=CC(=O)N(CC)c1ccccc1C`, the IC50 entry is reported as “Not Active”.

Regarding `O=C1NC(=O)C(c2ccccc2)(c2ccccc2)N1` [PHENYTOIN], the IC50 entry is “Not Active”.

Test system in the next series: not listed separately
Kind of series: DRUGMATRIX: GABAA, Chloride Channel, TBOB radioligand binding (ligand: [3H] TBOB). As to conditions: Not Active = under 50% inhibition at 10 µM. It is filed as cell membranes, Rattus norvegicus, Wistar, Cerebral cortex, Membrane.
Regarding `O=C1CN=C(c2ccccc2)c2cc([N+](=O)[O-])ccc2N1` [NITRAZEPAM], the IC50 entry is “Not Active” and the Ki entry is “Not Active”.

`CCC1(c2ccccc2)C(=O)NCNC1=O` [PRIMIDONE]: the IC50 result is recorded as “Not Active” and the Ki entry is given as “Not Active”.

`CC=CC(=O)N(CC)c1ccccc1C`: the IC50 result is “Not Active” and the Ki entry was “Not Active”.

For `O=C1NC(=O)C(c2ccccc2)(c2ccccc2)N1` [PHENYTOIN], the IC50 entry is recorded as “Not Active” and the Ki entry is “Not Active”.

The next series has as its target Histamine H2 receptor (Homo sapiens, UniProt P25021). Further: in other assays of this panel Not Active means under 50% inhibition at 10 µM.
Assay: not given
The class given is cell membranes, CHO-K1, Membrane. As to conditions: cho-k1.
On to `O=C1CN=C(c2ccccc2)c2cc([N+](=O)[O-])ccc2N1` [NITRAZEPAM], for which the IC50 entry was “Not Active”.

For the molecule `CCC1(c2ccccc2)C(=O)NCNC1=O` [PRIMIDONE], the IC50 result is reported as “Not Active”.

On to `CC=CC(=O)N(CC)c1ccccc1C`, for which the IC50 entry is “Not Active”.

On to `O=C1NC(=O)C(c2ccccc2)(c2ccccc2)N1` [PHENYTOIN], for which the IC50 result is “Not Active”.

Another series deals with T3, Polyunsaturated fatty acid lipoxygenase ALOX15 (Oryctolagus cuniculus, UniProt P12530).
T3 sequence (P12530 whole entry): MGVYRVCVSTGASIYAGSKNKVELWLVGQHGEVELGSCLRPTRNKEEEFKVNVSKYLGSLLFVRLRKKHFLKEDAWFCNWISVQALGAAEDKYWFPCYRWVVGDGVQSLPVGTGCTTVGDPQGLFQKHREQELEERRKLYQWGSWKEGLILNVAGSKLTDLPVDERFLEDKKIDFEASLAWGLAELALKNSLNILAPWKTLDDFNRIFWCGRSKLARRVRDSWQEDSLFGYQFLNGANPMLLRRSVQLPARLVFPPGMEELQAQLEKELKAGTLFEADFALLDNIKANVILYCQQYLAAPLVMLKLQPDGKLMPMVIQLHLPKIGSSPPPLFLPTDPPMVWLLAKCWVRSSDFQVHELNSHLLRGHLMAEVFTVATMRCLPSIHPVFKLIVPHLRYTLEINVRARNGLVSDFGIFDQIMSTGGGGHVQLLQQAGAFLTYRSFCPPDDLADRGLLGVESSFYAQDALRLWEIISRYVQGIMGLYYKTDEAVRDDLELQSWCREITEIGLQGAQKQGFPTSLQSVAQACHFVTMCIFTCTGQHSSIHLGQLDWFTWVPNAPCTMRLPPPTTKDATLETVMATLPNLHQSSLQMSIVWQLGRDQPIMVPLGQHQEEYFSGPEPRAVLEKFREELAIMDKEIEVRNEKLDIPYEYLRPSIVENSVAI
Kind of series: biochemical. The class given is tissue-based, Reticulocytes. The settings on record: reticulocytes.
On to `O=C1CN=C(c2ccccc2)c2cc([N+](=O)[O-])ccc2N1` [NITRAZEPAM], for which the IC50 entry is given as “Not Active”.

In the case of `CCC1(c2ccccc2)C(=O)NCNC1=O` [PRIMIDONE], the IC50 entry is “Not Active”.

For `CC=CC(=O)N(CC)c1ccccc1C`, the IC50 entry is “Not Active”.

Take `O=C1NC(=O)C(c2ccccc2)(c2ccccc2)N1` [PHENYTOIN]: the IC50 entry was “Not Active”.

Another series deals with T4, Adenosine receptor A3 (Homo sapiens, UniProt P0DMS8).
T4 sequence (P0DMS8 whole entry): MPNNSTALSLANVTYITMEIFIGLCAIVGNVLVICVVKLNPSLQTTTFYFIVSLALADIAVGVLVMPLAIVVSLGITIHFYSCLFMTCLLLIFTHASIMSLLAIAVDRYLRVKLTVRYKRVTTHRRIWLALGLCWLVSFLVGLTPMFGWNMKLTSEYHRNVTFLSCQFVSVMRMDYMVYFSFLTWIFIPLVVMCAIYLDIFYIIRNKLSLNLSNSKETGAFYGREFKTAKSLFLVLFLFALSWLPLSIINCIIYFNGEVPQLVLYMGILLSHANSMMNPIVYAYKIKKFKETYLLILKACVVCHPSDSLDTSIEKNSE
Assay: not given
The class given is cell membranes, CHO-K1, Membrane. As to conditions: cho-k1.
With `O=C1CN=C(c2ccccc2)c2cc([N+](=O)[O-])ccc2N1` [NITRAZEPAM], the IC50 result is given as “Not Active”.

As to `CCC1(c2ccccc2)C(=O)NCNC1=O` [PRIMIDONE], the IC50 result is “Not Active”.

`CC=CC(=O)N(CC)c1ccccc1C`: the IC50 entry is “Not Active”.

With `O=C1NC(=O)C(c2ccccc2)(c2ccccc2)N1` [PHENYTOIN], the IC50 entry is recorded as “Not Active”.

For a further series, the target named is Cytochrome P450 2D6 (Homo sapiens, UniProt P10635). Further: in other assays of this panel Not Active means under 50% inhibition at 10 µM.
Sequence of Cytochrome P450 2D6 (P10635 whole entry): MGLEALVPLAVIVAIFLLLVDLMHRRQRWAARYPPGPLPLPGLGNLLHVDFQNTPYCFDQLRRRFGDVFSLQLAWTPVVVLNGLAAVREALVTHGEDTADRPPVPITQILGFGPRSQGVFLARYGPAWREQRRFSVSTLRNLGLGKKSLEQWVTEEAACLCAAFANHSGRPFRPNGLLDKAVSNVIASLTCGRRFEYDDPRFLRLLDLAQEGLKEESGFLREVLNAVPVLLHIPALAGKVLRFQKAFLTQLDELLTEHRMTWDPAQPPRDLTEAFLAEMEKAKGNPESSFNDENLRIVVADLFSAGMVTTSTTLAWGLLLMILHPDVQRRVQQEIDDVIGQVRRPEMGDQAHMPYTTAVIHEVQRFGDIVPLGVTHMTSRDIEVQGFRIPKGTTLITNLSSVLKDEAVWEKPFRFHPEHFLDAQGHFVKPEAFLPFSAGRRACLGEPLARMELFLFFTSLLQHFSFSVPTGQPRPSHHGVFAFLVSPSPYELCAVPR
Assay: not given
As to conditions: bti-tn-5b1-4.
For the molecule `O=C1CN=C(c2ccccc2)c2cc([N+](=O)[O-])ccc2N1` [NITRAZEPAM], the IC50 result is on record as “Not Active” and the Ki entry is “Not Active”.

On to `CCC1(c2ccccc2)C(=O)NCNC1=O` [PRIMIDONE], for which the IC50 result was “Not Active” and the Ki result was “Not Active”.

`CC=CC(=O)N(CC)c1ccccc1C`: the IC50 entry is recorded as “Not Active” and the Ki result was “Not Active”.

Consider `O=C1NC(=O)C(c2ccccc2)(c2ccccc2)N1` [PHENYTOIN], for which the IC50 entry is listed as “Not Active” and the Ki entry was “Not Active”.

The next series has as its target Cytochrome P450 2E1 (Homo sapiens, UniProt P05181). Further: in other assays of this panel Not Active means under 50% inhibition at 10 µM.
Assay: not given
The settings on record: bti-tn-5b1-4.
`O=C1CN=C(c2ccccc2)c2cc([N+](=O)[O-])ccc2N1` [NITRAZEPAM]: the IC50 result is listed as “Not Active” and the Ki result was “Not Active”.

As to `CCC1(c2ccccc2)C(=O)NCNC1=O` [PRIMIDONE], the IC50 result was “Not Active” and the Ki entry is reported as “Not Active”.

In the case of `CC=CC(=O)N(CC)c1ccccc1C`, the IC50 result was “Not Active” and the Ki entry is “Not Active”.

`O=C1NC(=O)C(c2ccccc2)(c2ccccc2)N1` [PHENYTOIN]: the IC50 entry is given as “Not Active” and the Ki entry is listed as “Not Active”.
